Measured values published in patent US20040171566A1, “Antisense modulation of p38 mitogen activated protein kinase expression” (priority 1999, published 2004).
In the oligonucleotide strings, read from the 5' end, every base follows the letter of its sugar. An asterisk marks phosphorothioate; unmarked linkages are phosphodiester. Other units and linkages are bracketed, terminal groups are in braces. A string of capitals states the bases alone. e = 2'-O-(2-methoxyethyl) (MOE); [5mC] = 5-methylcytosine; d = 2'-deoxy (DNA)

Experiments:
[1] = system: human p38α mRNA; assay: Human p38α mRNA expression in T-24 cells; conditions: for % P38α mRNA EXPRESSION: initial screen of human p38α oligonucleotides
[2] = system: human p38β mRNA; assay: Human p38β mRNA expression in T-24 cells; conditions: for % P38β mRNA EXPRESSION: initial screen of human p38α oligonucleotides
[3] = initial screen of human p38β oligonucleotides
[4] = dose 50 nM, relative to control oligonucleotide = 100%
[5] = dose 100 nM, relative to control oligonucleotide = 100%
[6] = dose 200 nM, relative to control oligonucleotide = 100%

Q: “TTCTCTTATCTGAGTCCAAT (chimeric deoxy gapped, phosphorothioate, further chemistry not given here) [ISIS 100872]” was tested. Which “% p38α mRNA EXPRESSION” value ([1]; dose 50 nM) did it give?
A: Its value is 45%.

Q: And the “% p38α mRNA EXPRESSION” value ([1]; dose 100 nM)?
A: Its value is 18%.

Q: And the “% p38α mRNA EXPRESSION” value ([1]; dose 200 nM)?
A: Its value is 17%.

Q: What about the “% P38α mRNA EXPRESSION” value [1] of the same sequence?
A: The value was 37%.

Q: What about the “% P38β mRNA EXPRESSION” value [2] of the same sequence?
A: The value was 77%.

Q: What does the source list for “GCAACAAGAGGCACTTGAAT (eG*e[5mC]*eA*eA*e[5mC]*dA*dA*dG*dA*dG*dG*d[5mC]*dA*d[5mC]*dT*eT*eG*eA*eA*eT; antisense) [ISIS 100877]”?
A: % P38α mRNA EXPRESSION [1]: 47%; % P38β mRNA EXPRESSION [2]: 95%

Q: With “ACAGACGGAGCCGTAGGCGC (antisense eAe[5mC]eAeGeA*d[5mC]*dG*dG*dA*dG*d[5mC]*d[5mC]*dG*dT*dA*eGeGe[5mC]eGe[5mC]) [ISIS 107869]” as the sequence, how does the “% p38α mRNA EXPRESSION” value [1, 3] read?
A: Its value is 93%.

Q: And the “% p38β mRNA Expression” value [2, 3]?
A: Its value is 60%.

Q: With “TACCAGCGCGTGGCCACATA (antisense eTeAe[5mC]e[5mC]eA*dG*d[5mC]*dG*d[5mC]*dG*dT*dG*dG*d[5mC]*d[5mC]*eAe[5mC]eAeTeA) [ISIS 107875]” as the sequence, how does the “% p38α mRNA EXPRESSION” value [1, 3] read?
A: Its value is 112%.

Q: And the “% p38β mRNA Expression” value [2, 4]?
A: The value was 82%.

Q: And the “% p38β mRNA Expression” value [2, 5]?
A: The value was 38%.

Q: And the “% p38β mRNA Expression” value [2, 6]?
A: The value was 40%.

Q: And the “% p38β mRNA Expression” value [2, 3]?
A: The value was 92%.

Q: With “CACGTAGCCTGTCATTTCAT (chimeric deoxy gapped, phosphorothioate, further chemistry not given here) [ISIS 100868]” as the sequence, how does the “% P38α mRNA EXPRESSION” value [1] read?
A: The value was 47%.

Q: What about the “% P38β mRNA EXPRESSION” value [2] of the same sequence?
A: Its value is 60%.

Q: With “CTGAGACATTTTCCAGCGGC (phosphorothioate gapmer, further chemistry not given here) [ISIS 100860]” as the sequence, how does the “% P38α mRNA EXPRESSION” value [1] read?
A: The value was 73%.

Q: And the “% P38β mRNA EXPRESSION” value [2]?
A: Its value is 71%.

Q: How did the “% P38α mRNA EXPRESSION” value [1] turn out when “AATGATGGACTGAAATGGTC (eA*eA*eT*eG*eA*dT*dG*dG*dA*d[5mC]*dT*dG*dA*dA*dA*eT*eG*eG*eT*e[5mC]; antisense) [ISIS 100863]” was run?
A: Its value is 49%.

Q: And the “% P38β mRNA EXPRESSION” value [2]?
A: The value was 67%.

Q: With “TATGGTCTGTACCAGGAAAC (chimeric deoxy gapped, phosphorothioate, further chemistry not given here) [ISIS 100870]” as the sequence, how does the “% P38α mRNA EXPRESSION” value [1] read?
A: Its value is 51%.

Q: For “TGCCCTGGAGCAGCTCAGCC (antisense eTeGe[5mC]e[5mC]e[5mC]*dT*dG*dG*dA*dG*d[5mC]*dA*dG*d[5mC]*dT*e[5mC]eAeGe[5mC]e[5mC]) [ISIS 107878]”, which “% p38α mRNA EXPRESSION” value [1, 3] is on record?
A: The value was 112%.

Q: What about the “% p38β mRNA Expression” value [2, 4] of the same sequence?
A: Its value is 70%.

Q: And the “% p38β mRNA Expression” value [2, 5]?
A: Its value is 43%.

Q: What about the “% p38β mRNA Expression” value [2, 6] of the same sequence?
A: The value was 27%.

Q: What about the “% p38β mRNA Expression” value [2, 3] of the same sequence?
A: The value was 54%.

Q: What does the source list for “TGTAAGCTTCTGACATTTCA (phosphorothioate gapmer, further chemistry not given here) [ISIS 100865]”?
A: % P38α mRNA EXPRESSION [1]: 64%; % P38β mRNA EXPRESSION [2]: 63%

Q: “TGAATGTATATACTTTAGAC (eT*eG*eA*eA*eT*dG*dT*dA*dT*dA*dT*dA*d[5mC]*dT*dT*eT*eA*eG*eA*e[5mC]; antisense) [ISIS 100866]” was tested. Which “% P38α mRNA EXPRESSION” value [1] did it give?
A: Its value is 55%.

Q: And the “% P38β mRNA EXPRESSION” value [2]?
A: The value was 65%.

Q: What does the source list for “AGGTGCTCAGGACTCCATCT (chimeric deoxy gapped, phosphorothioate, further chemistry not given here) [ISIS 100876]”?
A: % P38α mRNA EXPRESSION [1]: 77%; % P38β mRNA EXPRESSION [2]: 93%

Q: How did the “% P38α mRNA EXPRESSION” value [1] turn out when “AGTCAAAGACTGAATATAGT (eA*eG*eT*e[5mC]*eA*dA*dA*dG*dA*d[5mC]*dT*dG*dA*dA*dT*eA*eT*eA*eG*eT; antisense) [ISIS 100871]” was run?
A: Its value is 57%.

Q: And the “% P38β mRNA EXPRESSION” value [2]?
A: The value was 96%.

Q: Which “% p38α mRNA EXPRESSION” value ([1]; dose 50 nM) does the source give for “CATCATCAGGATCGTGGTAC (chimeric deoxy gapped, phosphorothioate, further chemistry not given here) [ISIS 100873]” here?
A: The value was 19%.

Q: What about the “% p38α mRNA EXPRESSION” value ([1]; dose 100 nM) of the same sequence?
A: The value was 12%.

Q: What about the “% p38α mRNA EXPRESSION” value ([1]; dose 200 nM) of the same sequence?
A: The value was 8%.

Q: What about the “% P38α mRNA EXPRESSION” value [1] of the same sequence?
A: Its value is 34%.

Q: What about the “% P38β mRNA EXPRESSION” value [2] of the same sequence?
A: The value was 70%.
